The source of these data is patent US12532884B2, “Fungicidal compositions” (SYNGENTA CROP PROTECTION AG, priority 2020, dated 2026).

One experiment has as its system Phakopsora pachyrhizi. Nature of the experiment: Example D: preventative activity against Phakopsora pachyrhizi on soybean (whole plants sprayed, leaf disks inoculated). It counts as in vivo. The text has this:
(§1) Certain mixture compositions comprising a compound of formula (I) described above may show a synergistic effect. This occurs whenever the action of an active ingredient combination is greater than the sum of the actions of the individual components. The action to be expected E for a given active ingredient combination obeys the so-called COLBY formula and can be calculated as follows (COLBY, S. R. “Calculating synergistic and antagonistic responses of herbicide combination”. Weeds, Vol. 15, pages 20-22; 1967): • ppm=milligrams of active ingredient (=a.i.) per liter of spray mixture • X=% action by active ingredient A) using p ppm of active ingredient • Y=% action by active ingredient B) using q ppm of active ingredient.
(§2) According to COLBY, the expected (additive) action of active ingredients A)+B) using p+q ppm of active ingredient is:
(§3) If the action actually observed (O) is greater than the expected action (E), then the action of the combination is super-additive, i.e. there is a synergistic effect. In mathematical terms, synergism corresponds to a positive value for the difference of (O-E). In the case of purely complementary addition of activities (expected activity), said difference (O-E) is zero. A negative value of said difference (O-E) signals a loss of activity compared to the expected activity.
Whole soybean plants are treated with the recited active ingredients 4 weeks after planting. 1 day after spraying leaf disks are cut from the first trifoliate leaf. Five repetitions at each rate are conducted. The leaf disks are inoculated with Phakopsora pachyrhizi (Asian soybean rust) one day after treatment. Evaluation of the leaf disks is conducted 11 to 14 days after inoculation and the activity is derived from the relation of the treated vs untreated, infested check. (100=no disease, no damage to the leaf, 0=high infestation, leaf damaged heavily). The rates of the active ingredients used are given in the tables as g active ingredient (a.i.)/ha.

The test system of the next experiment is Septoria glycines. Description: Example C3: mixtures against Septoria glycines (brown spot), liquid culture. It counts as cell-based. The following applies: single component; for inhibition at 0.1 ppm / inhibition at 0.3 ppm: Septoria glycines, read-out: Activity (%).
Source text: This occurs whenever the action of an active ingredient combination is greater than the sum of the actions of the individual components. The action to be expected E for a given active ingredient combination obeys the so-called COLBY formula and can be calculated as follows (COLBY, S. R. “Calculating synergistic and antagonistic responses of herbicide combination”. Weeds, Vol. 15, pages 20-22; 1967): • ppm=milligrams of active ingredient (=a.i.) per liter of spray mixture • X=% action by active ingredient A) using p ppm of active ingredient • Y=% action by active ingredient B) using q ppm of active ingredient.
as §2, §3
Mycelia fragments or conidia suspensions of a fungus prepared either freshly from liquid cultures of the fungus or from cryogenic storage, are directly mixed into nutrient broth. DMSO solutions of the test compound (max. 10 mg/mL) are diluted with 0.025% Tween20 by a factor of 50 and 10 μl of this solution is pipetted into a microtiter plate (96-well format). […] The test plates are incubated in the dark at 24° C. and 96% relative humidity. The inhibition of fungal growth is determined photometrically after 2 to 7 days, depending on the pathosystem, and percent antifungal activity relative to the untreated check is calculated.
Conidia of the fungus harvested from a fresh culture grown on artificial media, were directly mixed into nutrient broth (PDB potato dextrose broth). A DMSO solution of the test compounds was placed into a microtiter plate (96-well format) and the nutrient broth containing the fungal spores was added to it.
Fungicidal activity was evaluated on a 100-0 scale (100=no disease growth; 0=well completely covered by mycelium).

In a further experiment the test system is Septoria tritici. Description: Example C2: mixtures against Septoria tritici (leaf blotch), liquid culture. It counts as cell-based. As to conditions: single component.
Source text: as §1, §2, §3
Mycelia fragments or conidia suspensions of a fungus prepared either freshly from liquid cultures of the fungus or from cryogenic storage, are directly mixed into nutrient broth. DMSO solutions of the test compound (max. 10 mg/mL) are diluted with 0.025% Tween20 by a factor of 50 and 10 μl of this solution is pipetted into a microtiter plate (96-well format). The nutrient broth containing the fungal spores/mycelia fragments is then added to give an end concentration of the tested compound. The test plates are incubated in the dark at 24° C. and 96% relative humidity. The inhibition of fungal growth is determined photometrically after 2 to 7 days, depending on the pathosystem, and percent antifungal activity relative to the untreated check is calculated.
Conidia of the fungus from cryogenic storage were directly mixed into nutrient broth (PDB potato dextrose broth). A DMSO solution of the test compounds was placed into a microtiter plate (96-well format) and the nutrient broth containing the fungal spores was added to it.
The following mixture compositions at the reported concentration (in ppm) in tables C2-3 to C2-5 gave the following disease control in this test Septoria tritici (leaf blotch). Fungicidal activity was evaluated on a 100-0 scale (100=no disease growth; 0=well completely covered by mycelium).

The mark [1] stands for this setting: single active ingredient, 4.5 g/ha.
[2] abbreviates: 0.1 ppm, 100-0 scale (100=no disease growth).
The mark [3] stands for this setting: 0.3 ppm, 100-0 scale (100=no disease growth).
Setting [4] is: Phakopsora pachyrhizi, foliar, applied alone, 9 g/ha, read-out: Observed Activity (% of untreated).
The mark [5] stands for this setting: Phakopsora pachyrhizi, foliar, applied alone, 18 g/ha, read-out: Observed Activity (% of untreated).
The mark [6] stands for this setting: Phakopsora pachyrhizi, foliar, single active ingredient, 9 g/ha, read-out: Observed Activity (%).
Where [7] appears, read: Phakopsora pachyrhizi, foliar, single active ingredient, 18 g/ha, read-out: Observed Activity (%).
The mark [8] stands for this setting: single active ingredient, 9 g/ha.
[9] abbreviates: single active ingredient, 18 g/ha.
The mark [10] stands for this setting: Phakopsora pachyrhizi, foliar, applied alone, 22.5 g/ha, read-out: Observed Activity (% of untreated).
Setting [11] is: Phakopsora pachyrhizi, foliar, applied alone, 45 g/ha, read-out: Observed Activity (% of untreated).
Where [12] appears, read: Phakopsora pachyrhizi, foliar, applied alone, read-out: Observed Activity (% of untreated).
Setting [13] is: Phakopsora pachyrhizi, foliar, single active ingredient, soybean, preventative, 100=no disease, read-out: Observed Activity (%).
Where [14] appears, read: Phakopsora pachyrhizi, foliar, applied alone, 4.5 g/ha, read-out: Observed Activity (% of untreated).
Where [15] appears, read: Phakopsora pachyrhizi, foliar, single active ingredient, 4.5 g/ha, read-out: Observed Activity (%).

Like-named read-outs stand apart in the source and are kept apart here.

`Cn1cc(C(=O)Nc2cccc3c2[C@@H]2CC[C@H]3C2=C(Cl)Cl)c(C(F)F)n1` (racemic) [Benzovindiflupyr]: the “Observed Activity (% of untreated)” value with Phakopsora pachyrhizi (applied alone, 2.25 g/ha) is 92%; in the experiment with Phakopsora pachyrhizi (applied alone, 4.5 g/ha) it was 94%. The “Observed Activity (%)” value was 92% with Phakopsora pachyrhizi (single active ingredient, 2.25 g/ha) and 94% with Phakopsora pachyrhizi (setting [1]).

Turning to `CC(C)(C)[C@@H](O)[C@@H](Cc1ccc(Cl)cc1)n1cncn1` (racemic) [paclobutrazol], in the experiment on Septoria glycines (setting [2]), the inhibition at 0.1 ppm is 0%. In addition, in the experiment on Septoria glycines (setting [3]), the inhibition at 0.3 ppm was 50%.

Turning to `CNC(=O)C(=N/OC)/C(C)=C\COc1ccn(-c2ccc(Cl)cc2Cl)n1` [(Z,2E)-5-[1-(2,4-dichlorophenyl)pyrazol-3-yl]oxy-2-methoxyimino-N,3-dimethyl-pent-3-enamide], the inhibition at 9 g/ha in the experiment with Phakopsora pachyrhizi (setting [4]) and in the experiment on Phakopsora pachyrhizi (setting [6]) was 2% throughout. Besides, the inhibition at 18 g/ha in the experiment with Phakopsora pachyrhizi (setting [5]) and with Phakopsora pachyrhizi (setting [7]) was 3% in each case.

Regarding `CO/C=C(/C(=O)OC)c1ccccc1Oc1cc(Oc2ccccc2C#N)ncn1` [Azoxystrobin], the “Observed Activity (% of untreated)” value turned out to be 0% in the experiment with Phakopsora pachyrhizi (applied alone, 2.25 g/ha); 15% in the experiment on Phakopsora pachyrhizi (applied alone, 4.5 g/ha); 23% with Phakopsora pachyrhizi (applied alone, 9 g/ha); 9% with Phakopsora pachyrhizi (applied alone, 18 g/ha). Also, the “Observed Activity (%)” value in the experiment on Phakopsora pachyrhizi (setting [1]) was 0%; in the experiment with Phakopsora pachyrhizi (setting [8]), 2%; in the experiment on Phakopsora pachyrhizi (setting [9]) it was 26%.

Consider `CC(C1CC1)C(O)(Cn1cncn1)c1ccc(Cl)cc1` (stereo not drawn) [Cyproconazole], for which the inhibition at 22.5 g/ha in the experiment with Phakopsora pachyrhizi (setting [10]) was found to be 51%. In addition, the inhibition at 45 g/ha with Phakopsora pachyrhizi (setting [11]) was 52%.

With `CC1COC(Cn2cncn2)(c2ccc(Oc3ccc(Cl)cc3)cc2Cl)O1` (stereo not drawn) [Difenoconazole], the inhibition at 22.5 g/ha with Phakopsora pachyrhizi (setting [10]) came to 0%. The inhibition at 45 g/ha in the experiment with Phakopsora pachyrhizi (setting [11]) amounted to 0%.

Regarding `CC(Cc1ccc(C(C)(C)C)cc1)CN1CCCCC1` (stereo not drawn) [Fenpropidin, reference compound], in the experiment on Phakopsora pachyrhizi (setting [12]), the inhibition at 225 g/ha is 64%, the inhibition at 450 g/ha was found to be 61% and the inhibition at 900 g/ha was found to be 82%. In addition, in the experiment with Phakopsora pachyrhizi (setting [13]), the inhibition at 225 g/ha came out at 64%, the inhibition at 450 g/ha is 61% and the inhibition at 900 g/ha turned out to be 82%. For the same molecule, in the experiment on Septoria glycines (setting [2]), the inhibition at 0.1 ppm amounted to 0%. In the experiment on Septoria glycines (setting [3]), the inhibition at 0.3 ppm came to 50%.

As for `CC(Cc1ccc(C(C)(C)C)cc1)CN1C[C@@H](C)O[C@@H](C)C1` (stereo partly drawn) [Fenpropimorph, reference compound], in the experiment on Phakopsora pachyrhizi (setting [12]), the inhibition at 225 g/ha stood at 8%, the inhibition at 450 g/ha was found to be 43% and the inhibition at 900 g/ha worked out at 76%. Further, in the experiment with Phakopsora pachyrhizi (setting [13]), the inhibition at 225 g/ha worked out at 8%, the inhibition at 450 g/ha was 43% and the inhibition at 900 g/ha was 76%. Moreover, the inhibition at 0.1 ppm with Septoria glycines (setting [2]) stood at 50%. The inhibition at 0.3 ppm in the experiment on Septoria glycines (setting [3]) came to 70%.

In the case of `Cc1cccc(-n2nnn(C)c2=O)c1COc1ccn(-c2ccc(Cl)cc2)n1` [Metyltetraprole], the “Observed Activity (% of untreated)” value with Phakopsora pachyrhizi (applied alone, 9 g/ha) stood at 2%; in the experiment on Phakopsora pachyrhizi (applied alone, 18 g/ha) it was 2%. Besides, the “Observed Activity (%)” value in the experiment on Phakopsora pachyrhizi (setting [8]) and in the experiment with Phakopsora pachyrhizi (setting [9]) was 2% each time.

Turning to `OC(Cc1ccccc1Cl)(Cn1nc[nH]c1=S)C1(Cl)CC1` (stereo not drawn) [Prothioconazole], the inhibition at 22.5 g/ha in the experiment with Phakopsora pachyrhizi (setting [10]) worked out at 74%. The inhibition at 45 g/ha in the experiment with Phakopsora pachyrhizi (setting [11]) is 76%.

Regarding `CON(C(=O)c1cn(C)nc1C(F)F)C(C)Cc1c(Cl)cc(Cl)cc1Cl` (stereo not drawn) [Pydiflumetofen], the “Observed Activity (% of untreated)” value was 0% in the experiment with Phakopsora pachyrhizi (applied alone, 22.5 g/ha) and 4% with Phakopsora pachyrhizi (applied alone, 45 g/ha).

For the molecule `COC(=O)N(OC)c1ccccc1COc1ccn(-c2ccc(Cl)cc2)n1` [Pyraclostrobin], the inhibition at 4.5 g/ha in the experiment on Phakopsora pachyrhizi (setting [14]) and in the experiment with Phakopsora pachyrhizi (setting [15]) was 1% each time. Further, the inhibition at 9 g/ha in the experiment with Phakopsora pachyrhizi (setting [4]) and in the experiment with Phakopsora pachyrhizi (setting [6]) was 1% in each case. For the same molecule, the inhibition at 18 g/ha in the experiment on Phakopsora pachyrhizi (setting [5]) and with Phakopsora pachyrhizi (setting [7]) was 0% in each case.

With `CON=C(C(=O)OC)c1ccccc1CON=C(C)c1cccc(C(F)(F)F)c1` [Trifloxystrobin], the inhibition at 2.25 g/ha with Phakopsora pachyrhizi (Phakopsora pachyrhizi, foliar, applied alone, 2.25 g/ha, read-out: Observed Activity (% of untreated)) worked out at 0%. Moreover, the inhibition at 4.5 g/ha stood at 3% in the experiment on Phakopsora pachyrhizi (setting [14]) and 0% in the experiment with Phakopsora pachyrhizi (setting [15]). The inhibition at 9 g/ha turned out to be 0% in the experiment with Phakopsora pachyrhizi (setting [4]) and 1% in the experiment on Phakopsora pachyrhizi (setting [6]). Also, the inhibition at 18 g/ha was 19% in the experiment on Phakopsora pachyrhizi (setting [5]) and 33% with Phakopsora pachyrhizi (setting [7]).

In the case of `O=C(NCCc1ncc(C(F)(F)F)cc1Cl)c1ccccc1C(F)(F)F` [fluopyram], the inhibition at 0.1 ppm in the experiment on Septoria glycines (setting [2]) is 0%. Further, in the experiment with Septoria glycines (setting [3]), the inhibition at 0.3 ppm is 50%.

Consider `OC(Cn1cncn1)(c1ccc(F)cc1)c1ccccc1F` (stereo not drawn) [flutriafol], for which the inhibition at 0.1 ppm in the experiment with Septoria glycines (setting [2]) stood at 20%. Moreover, the inhibition at 0.3 ppm with Septoria glycines (setting [3]) amounted to 70%.

In the case of `Cn1cc(C(=O)Nc2ccccc2-c2cc(F)c(F)c(F)c2)c(C(F)F)n1` [fluxapyroxad], the “Activity (%)” value with Septoria glycines (0.1 ppm) worked out at 50%; in the experiment with Septoria glycines (setting [2]) it was 50%; in the experiment with Septoria glycines (0.3 ppm), 70%; in the experiment with Septoria glycines (setting [3]) it was 70%.

With `CCCCC(O)(Cn1cncn1)c1ccc(Cl)cc1Cl` (stereo not drawn) [hexaconazole], the inhibition at 0.1 ppm with Septoria tritici (Zymoseptoria tritici, 0.1 ppm, 100-0 scale (100=no disease growth)) worked out at 70%.

Take `CCCC1COC(Cn2cncn2)(c2ccc(Cl)cc2Cl)O1` (stereo not drawn) [propiconazole]: the inhibition at 0.3 ppm in the experiment on Septoria tritici (Zymoseptoria tritici, 0.3 ppm, 100-0 scale, read-out: Activity (%)) was found to be 70%.

`CC1(C)N=C(c2cnc3ccccc3c2)c2ccccc2C1(F)F` [quinofumelin]: the “Activity (%)” value in the experiment with Septoria tritici (0.3 ppm, 100-0 scale) is 0%.

On to `S1SSSSSSS1` [sulphur], for which, in the experiment on Septoria glycines (setting [3]), the inhibition at 0.3 ppm was 0%.

In the case of `CC(C)(C)C(O)(CCc1ccc(Cl)cc1)Cn1cncn1` (stereo not drawn) [tebuconazole], the inhibition at 0.1 ppm in the experiment with Septoria glycines (setting [2]) is 70%.

Regarding `CCOC(=O)C1CC(=O)C(=C(O)C2CC2)C(=O)C1` (stereo not drawn) [trinexapac-ethyl], the inhibition at 0.3 ppm in the experiment with Septoria glycines (setting [3]) came out at 0%.
